Tests used:
Type in all cases: in vivo
Myzus persicae [1] = experiment: Activity against Myzus persicae (green peach aphid), feeding/contact activity, sunflower leaf discs; conditions: for mortality at 200 ppm: Myzus persicae, foliar, 144 h, application rate 200 ppm, feeding/contact, 6 days after infestation; for Mortality (%): Myzus persicae (feeding/contact)
Description: Example B4: Activity Against Myzus persicae (Green Peach Aphid) Feeding/Contact Activity
Sunflower leaf discs were placed on agar in a 24-well microtiter plate and sprayed with aqueous test solutions prepared from 10′000 ppm DMSO stock solutions. After drying, the leaf discs were infested with an aphid population of mixed ages. The samples were assessed for mortality 6 days after infestation.

Myzus persicae [2] = experiment: Activity against Myzus persicae (green peach aphid), systemic activity, pea seedlings; conditions: Myzus persicae; for mortality at 24 ppm: 144 h, test rate 24 ppm, systemic, 6 days after placing seedlings in test solutions
Description: Example B5: Activity Against Myzus persicae (Green Peach Aphid) Systemic Activity
Roots of pea seedlings infested with an aphid population of mixed ages were placed directly in the aqueous test solutions prepared from 10′000 DMSO stock solutions. The samples were assessed for mortality 6 days after placing seedlings in test solutions.

Diabrotica balteata = experiment: Activity against Diabrotica balteata (corn root worm), maize sprouts; conditions: for percent effect (mortality or growth inhibition) at 200 ppm: 96 h, application rate 200 ppm, L2 larvae, 4 days after infestation, read-out: effect in at least one of the two categories (mortality or growth inhibition)
Description: Example B3: Activity Against Diabrotica Balteata (Corn Root Worm)
Maize sprouts placed onto an agar layer in 24-well microtiter plates were treated with aqueous test solutions prepared from 10′000 ppm DMSO stock solutions by spraying. After drying, the plates were infested with L2 larvae (6 to 10 per well). The samples were assessed for mortality and growth inhibition in comparison to untreated samples 4 days after infestation.

Euschistus heros = experiment: Activity against Euschistus heros (neotropical brown stink bug), soybean leaf; conditions: 120 h, application rate 200 ppm, N-2 nymphs, 5 days after infestation, read-out: effect in at least one of the two categories (mortality or growth inhibition)
Description: Example B7: Activity Against Euschistus heros (Neotropical Brown Stink Bug)
Soybean leaf on agar in 24-well microtiter plates were sprayed with aqueous test solutions prepared from 10′000 ppm DMSO stock solutions. After drying the leaf were infested with N-2 nymphs. The samples were assessed for mortality and growth inhibition in comparison to untreated samples 5 days after infestation.

Plutella xylostella [3] = experiment: Activity against Plutella xylostella (diamond back moth), artificial diet, L2 larvae; conditions: 120 h, application rate 200 ppm, 5 days after infestation, read-out: effect in at least one of the two categories (mortality or growth inhibition)
Description: Example B2: Activity Against Plutella xylostella (Diamond Back Moth)
(§1) 24-well microtiter plates with artificial diet were treated with aqueous test solutions prepared from 10′000 ppm DMSO stock solutions by pipetting. After drying, the plates were infested with L2 larvae (10 to 15 per well). The samples were assessed for mortality and growth inhibition in comparison to untreated samples 5 days after infestation.

Spodoptera littoralis = experiment: Activity against Spodoptera littoralis (Egyptian cotton leaf worm), cotton leaf discs; conditions: foliar, 72 h, application rate 200 ppm, L1 larvae, 3 days after infestation, read-out: control (mortality, anti-feeding effect or growth inhibition)
Procedure, shortened: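 Cotton leaf discs on agar sprayed with aqueous test solutions made from 10′000 ppm DMSO stocks, dried, then infested with five L1 larvae. Mortality, anti-feeding and growth inhibition scored versus untreated samples 3 days after infestation; control given when any category exceeds untreated.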

Bemisia tabaci = experiment: Activity against Bemisia tabaci (cotton white fly), cotton leaf discs; conditions: for mortality at 200 ppm: foliar, 144 h, application rate 200 ppm, adult white flies, 6 days after incubation; for Mortality (%): concentration 12.5 ppm
Description: Example B6: Activity Against Bemisia tabaci (Cotton White Fly)
Cotton leaf discs were placed on agar in 24-well microtiter plates and sprayed with aqueous test solutions prepared from 10′000 ppm DMSO stock solutions. After drying the leaf discs were infested with adult white flies. The samples were checked for mortality 6 days after incubation.

Chilo suppressalis = experiment: Activity against Chilo suppressalis (striped rice stemborer), artificial diet; conditions: 144 h, application rate 200 ppm, L2 larvae, 6 days after infestation
Description: Example B11: Activity Against Chilo suppressalis (Striped Rice Stemborer)
as §1, with “(6-8” for “(10 to 15”, “mortality, anti-feeding effect,” for “mortality”, “6” for “5”, “infestation. Control of Chilo suppressalis by a test sample is given when at least one of the categories mortality, anti-feedant effect, and growth inhibition is higher than the untreated sample.” for “infestation.”

Plutella xylostella [4] = experiment: Activity against Plutella xylostella (diamond back moth), artificial diet, eggs; conditions: 192 h, application rate 200 ppm, 8 days after infestation, read-out: effect in at least one of the two categories (mortality or growth inhibition)
Procedure, shortened: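 Artificial diet in wells treated with aqueous dilutions of 10′000 ppm DMSO stocks, dried, then infested with Plutella eggs. Mortality and growth inhibition scored against untreated samples 8 days after infestation.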

CCS(=N)(=O)c1cc(OC(C)(C)C#N)c(C)nc1-c1nc2cc(C(F)(F)F)cnc2n1C (racemic) [Compound P5, 2-[[5-(ethylsulfonimidoyl)-2-methyl-6-[3-methyl-6-(trifluoromethyl)imidazo[4,5-b]pyridin-2-yl]-3-pyridyl]oxy]-2-methyl-propanenitrile]
≥ 80%: mortality at 200 ppm (Myzus persicae [1]) | mortality at 24 ppm (Myzus persicae [2]) | percent effect (mortality or growth inhibition) at 200 ppm (Diabrotica balteata) | percent effect (mortality or growth inhibition) at 200 ppm (Euschistus heros) | percent effect (mortality or growth inhibition) at 200 ppm (Plutella xylostella [3]) | percent control (mortality, anti-feedant effect or growth inhibition) at 200 ppm (Spodoptera littoralis) | mortality at 200 ppm (Bemisia tabaci)

CCS(=N)(=O)c1cc(C2(C#N)CC2)cnc1-c1nc2cc(C(F)(F)F)n(OC)c(=O)c2n1C (racemic) [Compound P8, 1-[5-(ethylsulfonimidoyl)-6-[5-methoxy-3-methyl-4-oxo-6-(trifluoromethyl)imidazo[4,5-c]pyridin-2-yl]-3-pyridyl]cyclopropanecarbonitrile]
≥ 80%: mortality at 200 ppm (Myzus persicae [1]) | mortality at 24 ppm (Myzus persicae [2]) | percent effect (mortality or growth inhibition) at 200 ppm (Diabrotica balteata) | percent effect (mortality or growth inhibition) at 200 ppm (Euschistus heros) | percent effect (mortality or growth inhibition) at 200 ppm (Plutella xylostella [3]) | percent control (mortality, anti-feedant effect or growth inhibition) at 200 ppm (Spodoptera littoralis) | mortality at 200 ppm (Bemisia tabaci)

CCS(=N)(=O)c1cc(OC(C)(C)C#N)cnc1-c1nc2cc(C(F)(F)F)cnc2n1C (racemic) [Compound P9, 2-[[5-(ethylsulfonimidoyl)-6-[3-methyl-6-(trifluoromethyl)imidazo[4,5-b]pyridin-2-yl]-3-pyridyl]oxy]-2-methyl-propanenitrile]
≥ 80%: mortality at 200 ppm (Myzus persicae [1]) | mortality at 24 ppm (Myzus persicae [2]) | percent effect (mortality or growth inhibition) at 200 ppm (Diabrotica balteata) | percent effect (mortality or growth inhibition) at 200 ppm (Euschistus heros) | percent effect (mortality or growth inhibition) at 200 ppm (Plutella xylostella [3]) | percent control (mortality, anti-feedant effect or growth inhibition) at 200 ppm (Spodoptera littoralis) | mortality at 200 ppm (Bemisia tabaci)

CCn1c(C(F)(F)F)cc2nc(-c3ncc(C4(C#N)CC4)cc3S(=N)(=O)CC)n(C)c2c1=O (racemic) [Compound P14, 1-[6-[5-ethyl-3-methyl-4-oxo-6-(trifluoromethyl)imidazo[4,5-c]pyridin-2-yl]-5-(ethylsulfonimidoyl)-3-pyridyl]cyclopropanecarbonitrile]
≥ 80%: mortality at 200 ppm (Myzus persicae [1]) | mortality at 24 ppm (Myzus persicae [2]) | percent effect (mortality or growth inhibition) at 200 ppm (Diabrotica balteata) | percent effect (mortality or growth inhibition) at 200 ppm (Euschistus heros) | percent effect (mortality or growth inhibition) at 200 ppm (Plutella xylostella [3]) | percent control (mortality, anti-feedant effect or growth inhibition) at 200 ppm (Spodoptera littoralis) | mortality at 200 ppm (Bemisia tabaci)

CCn1c(C(F)(F)F)cc2nc(-c3ncc(OC(C)(C)C#N)cc3S(=N)(=O)CC)n(C)c2c1=O (racemic) [Compound P19, 2-[[6-[5-ethyl-3-methyl-4-oxo-6-(trifluoromethyl)imidazo[4,5-c]pyridin-2-yl]-5-(ethylsulfonimidoyl)-3-pyridyl]oxy]-2-methyl-propanenitrile]
≥ 80%: mortality at 200 ppm (Myzus persicae [1]) | mortality at 24 ppm (Myzus persicae [2]) | percent effect (mortality or growth inhibition) at 200 ppm (Diabrotica balteata) | percent effect (mortality or growth inhibition) at 200 ppm (Euschistus heros) | percent effect (mortality or growth inhibition) at 200 ppm (Plutella xylostella [3]) | percent control (mortality, anti-feedant effect or growth inhibition) at 200 ppm (Spodoptera littoralis) | mortality at 200 ppm (Bemisia tabaci)

CCS(=N)(=O)c1cc(C2(C#N)CC2)cnc1-c1nc2cc(C(F)(F)F)nnc2n1C (single isomer, unassigned) [Compound P2-A, 1-[5-(ethylsulfonimidoyl)-6-[7-methyl-3-(trifluoromethyl)imidazo[4,5-c]pyridazin-6-yl]-3-pyridyl]cyclopropanecarbonitrile]
100%: Mortality (%) (Myzus persicae [1]; concentration 3.125 ppm)
≥ 80%: mortality at 200 ppm (Myzus persicae [1]) | mortality at 24 ppm (Myzus persicae [2]) | percent control (mortality, anti-feedant effect or growth inhibition) at 200 ppm (Chilo suppressalis) | mortality at 200 ppm (Bemisia tabaci)

CCS(=N)(=O)c1cc(C2(C#N)CC2)ccc1-c1nc2cc(C(F)(F)F)cnc2n1C (single isomer, unassigned) [Compound P6-A, 1-[3-(ethylsulfonimidoyl)-4-[3-methyl-6-(trifluoromethyl)imidazo[4,5-b]pyridin-2-yl]phenyl]cyclopropanecarbonitrile]
80%: mortality at 6 ppm (Myzus persicae [2]; Myzus persicae (systemic), concentration 6 ppm) | mortality at 50 ppm (Diabrotica balteata; concentration 50 ppm)
≥ 80%: mortality at 200 ppm (Myzus persicae [1]) | mortality at 24 ppm (Myzus persicae [2]) | percent control (mortality, anti-feedant effect or growth inhibition) at 200 ppm (Chilo suppressalis) | percent effect (mortality or growth inhibition) at 200 ppm (Diabrotica balteata) | mortality at 200 ppm (Bemisia tabaci)

CCS(=N)(=O)c1cc(C2(C#N)CC2)cnc1-c1nc2cc(C(F)(F)F)n(OC)c(=O)c2n1C (single isomer, unassigned) [Compound P8-B, 1-[5-(ethylsulfonimidoyl)-6-[5-methoxy-3-methyl-4-oxo-6-(trifluoromethyl)imidazo[4,5-c]pyridin-2-yl]-3-pyridyl]cyclopropanecarbonitrile]
≥ 80%: percent effect (mortality or growth inhibition) at 200 ppm (Plutella xylostella [4]) | percent control (mortality, anti-feedant effect or growth inhibition) at 200 ppm (Chilo suppressalis)

CCS(=N)(=O)c1cc(C2(C#N)CC2)cnc1-c1nc2cc(C(F)(F)F)ncc2n1C (single isomer, unassigned) [Compound P10-B, 1-[5-(ethylsulfonimidoyl)-6-[3-methyl-6-(trifluoromethyl)imidazo[4,5-c]pyridin-2-yl]-3-pyridyl]cyclopropanecarbonitrile]
80%: Mortality (%) (Myzus persicae [1]; concentration 0.781 ppm)
≥ 80%: percent control (mortality, anti-feedant effect or growth inhibition) at 200 ppm (Chilo suppressalis)
100%: Mortality (%) (Bemisia tabaci)

CCS(=N)(=O)c1cc(C(C)(C)C#N)cnc1-c1nc2cc(C(F)(F)F)cnc2n1C (single isomer, unassigned) [Compound P12-B, 2-[5-(ethylsulfonimidoyl)-6-[3-methyl-6-(trifluoromethyl)imidazo[4,5-b]pyridin-2-yl]-3-pyridyl]-2-methyl-propanenitrile]
≥ 80%: percent control (mortality, anti-feedant effect or growth inhibition) at 200 ppm (Chilo suppressalis)

CCS(=N)(=O)c1cc(OC(C)(C)C#N)cnc1-c1nc2cc(C(F)(F)F)ncc2n1C (single isomer, unassigned) [Compound P13-B, 2-[[5-(ethylsulfonimidoyl)-6-[3-methyl-6-(trifluoromethyl)imidazo[4,5-c]pyridin-2-yl]-3-pyridyl]oxy]-2-methyl-propanenitrile]
≥ 80%: percent control (mortality, anti-feedant effect or growth inhibition) at 200 ppm (Chilo suppressalis) | percent control (mortality, anti-feedant effect or growth inhibition) at 200 ppm (Spodoptera littoralis)
100%: Mortality (%) (Myzus persicae [1]; concentration 12.5 ppm) | Mortality (%) (Diabrotica balteata; concentration 50 ppm)

CCn1c(C(F)(F)F)cc2nc(-c3ncc(C4(C#N)CC4)cc3S(=N)(=O)CC)n(C)c2c1=O (single isomer, unassigned) [Compound P14-B, 1-[6-[5-ethyl-3-methyl-4-oxo-6-(trifluoromethyl)imidazo[4,5-c]pyridin-2-yl]-5-(ethylsulfonimidoyl)-3-pyridyl]cyclopropanecarbonitrile]
50%: Mortality (%) (Diabrotica balteata; concentration 50 ppm)
≥ 80%: percent control (mortality, anti-feedant effect or growth inhibition) at 200 ppm (Chilo suppressalis)

CCS(=N)(=O)c1cc(C2(C#N)CC2)cnc1-c1nc2cc(C(F)(F)F)cnc2n1C (single isomer, unassigned) [Compound P16-B, 1-[5-(ethylsulfonimidoyl)-6-[3-methyl-6-(trifluoromethyl)imidazo[4,5-b]pyridin-2-yl]-3-pyridyl]cyclopropanecarbonitrile]
100%: Mortality (%) (Myzus persicae [1]; concentration 3.125 ppm)
80%: Mortality (%) (Bemisia tabaci)
≥ 80%: percent control (mortality, anti-feedant effect or growth inhibition) at 200 ppm (Chilo suppressalis) | percent control (mortality, anti-feedant effect or growth inhibition) at 200 ppm (Spodoptera littoralis)

Reference: patent US20250081967A1, “PESTICIDALLY ACTIVE HETEROCYCLIC DERIVATIVES WITH SULFOXIMINE CONTAINING SUBSTITUENTS” (SYNGENTA CROP PROTECTION AG, priority 2021, published 2025)
